Experimental data as given in the NIST ThermoML archive (doi:10.1016/j.jct.2018.08.013).
Several values for one entry are separate records, joined by “and”; a condition that tells them apart may be missing. Identical values can stand only once.

Assays:
[1] = xn = mol fraction of the nth substance listed; conditions: 298 K; 100 kPa; Crystal of intercomponent compound 1; X-ray diffraction; x2 = 0.493
[2] = specific heat capacity at constant pressure; xn = mol fraction of the nth substance listed; conditions: 100 kPa, Crystal of intercomponent compound 1, x2 = 0.493

[S] [sulfur] + [Ga]
Conditions	mass density [kg/m3]
[1]	3910

[2]
Conditions	specific heat capacity
18.16 K, relaxation calorimetry	12.05 J/K/kg
18.18 K, relaxation calorimetry	12.12 J/K/kg
20.17 K, relaxation calorimetry	16.52 J/K/kg
20.2 K, relaxation calorimetry	16.6 J/K/kg
22.19 K, relaxation calorimetry	21.61 J/K/kg
22.22 K, relaxation calorimetry	21.71 J/K/kg and 21.72 J/K/kg
24.21 K, relaxation calorimetry	27.33 J/K/kg
24.24 K, relaxation calorimetry	27.43 J/K/kg and 27.44 J/K/kg
26.24 K, relaxation calorimetry	33.49 J/K/kg
26.26 K, relaxation calorimetry	33.58 J/K/kg
28.24 K, relaxation calorimetry	39.83 J/K/kg
28.26 K, relaxation calorimetry	39.94 J/K/kg
28.27 K, relaxation calorimetry	39.95 J/K/kg
30.29 K, relaxation calorimetry	46.52 J/K/kg and 46.51 J/K/kg
35.28 K, relaxation calorimetry	63.34 J/K/kg
35.34 K, relaxation calorimetry	63.61 J/K/kg and 63.51 J/K/kg
40.32 K, relaxation calorimetry	80.08 J/K/kg
40.39 K, relaxation calorimetry	80.21 J/K/kg
40.4 K, relaxation calorimetry	80.32 J/K/kg
45.38 K, relaxation calorimetry	96.1 J/K/kg
45.44 K, relaxation calorimetry	96.06 J/K/kg
45.46 K, relaxation calorimetry	96.26 J/K/kg
50.44 K, relaxation calorimetry	111.7 J/K/kg
50.47 K, relaxation calorimetry	111.6 J/K/kg
50.51 K, relaxation calorimetry	111.7 J/K/kg
55.47 K, relaxation calorimetry	126.24 J/K/kg
55.51 K, relaxation calorimetry	125.95 J/K/kg
55.55 K, relaxation calorimetry	126.24 J/K/kg
60.51 K, relaxation calorimetry	140.09 J/K/kg
60.55 K, relaxation calorimetry	139.99 J/K/kg
60.58 K, relaxation calorimetry	139.99 J/K/kg
65.57 K, relaxation calorimetry	154.14 J/K/kg
65.59 K, relaxation calorimetry	154.04 J/K/kg
65.63 K, relaxation calorimetry	154.04 J/K/kg
70.62 K, relaxation calorimetry	167.6 J/K/kg
70.63 K, relaxation calorimetry	167.6 J/K/kg
70.66 K, relaxation calorimetry	167.5 J/K/kg
75.65 K, relaxation calorimetry	180.57 J/K/kg
75.68 K, relaxation calorimetry	180.86 J/K/kg
75.7 K, relaxation calorimetry	180.47 J/K/kg
80.7 K, relaxation calorimetry	194.32 J/K/kg
80.73 K, relaxation calorimetry	194.42 J/K/kg
80.74 K, relaxation calorimetry	194.32 J/K/kg
85.74 K, relaxation calorimetry	207.39 J/K/kg
85.77 K, relaxation calorimetry	207.39 J/K/kg
85.78 K, relaxation calorimetry	207.39 J/K/kg
90.77 K, relaxation calorimetry	220.55 J/K/kg
90.8 K, relaxation calorimetry	220.26 J/K/kg and 220.45 J/K/kg
95.75 K, relaxation calorimetry	232.24 J/K/kg
95.79 K, relaxation calorimetry	231.95 J/K/kg
95.82 K, relaxation calorimetry	231.85 J/K/kg
100.8 K, relaxation calorimetry	243.64 J/K/kg
100.86 K, relaxation calorimetry	242.85 J/K/kg
100.91 K, relaxation calorimetry	243.05 J/K/kg
106.88 K, relaxation calorimetry	257.1 J/K/kg and 257.39 J/K/kg
107.03 K, relaxation calorimetry	256.21 J/K/kg
113.66 K, relaxation calorimetry	272.42 J/K/kg
113.82 K, relaxation calorimetry	273.11 J/K/kg
113.94 K, relaxation calorimetry	271.54 J/K/kg
120.64 K, relaxation calorimetry	286.47 J/K/kg
120.83 K, relaxation calorimetry	286.96 J/K/kg
120.89 K, relaxation calorimetry	285.1 J/K/kg
127.82 K, relaxation calorimetry	298.56 J/K/kg
127.84 K, relaxation calorimetry	298.36 J/K/kg
134.78 K, relaxation calorimetry	310.93 J/K/kg
134.8 K, relaxation calorimetry	310.34 J/K/kg
134.81 K, relaxation calorimetry	310.25 J/K/kg
141.61 K, relaxation calorimetry	324 J/K/kg
141.75 K, relaxation calorimetry	322.43 J/K/kg
141.83 K, relaxation calorimetry	321.94 J/K/kg
148.61 K, relaxation calorimetry	333.53 J/K/kg
148.72 K, relaxation calorimetry	332.15 J/K/kg
148.84 K, relaxation calorimetry	330.48 J/K/kg
155.54 K, relaxation calorimetry	342.37 J/K/kg
155.64 K, relaxation calorimetry	340.7 J/K/kg
155.72 K, relaxation calorimetry	339.33 J/K/kg
162.61 K, relaxation calorimetry	350.82 J/K/kg
162.66 K, relaxation calorimetry	349.74 J/K/kg
162.73 K, relaxation calorimetry	349.64 J/K/kg
169.57 K, relaxation calorimetry	360.25 J/K/kg
169.65 K, relaxation calorimetry	358.19 J/K/kg
169.72 K, relaxation calorimetry	359.07 J/K/kg
176.58 K, relaxation calorimetry	367.72 J/K/kg
176.67 K, relaxation calorimetry	367.72 J/K/kg
176.69 K, relaxation calorimetry	362.51 J/K/kg
183.46 K, relaxation calorimetry	377.05 J/K/kg
183.56 K, relaxation calorimetry	375.87 J/K/kg
183.6 K, relaxation calorimetry	370.67 J/K/kg
190.49 K, relaxation calorimetry	383.83 J/K/kg
190.59 K, relaxation calorimetry	383.53 J/K/kg
190.65 K, relaxation calorimetry	378.13 J/K/kg
197.48 K, relaxation calorimetry	388.94 J/K/kg
197.53 K, relaxation calorimetry	389.63 J/K/kg
197.63 K, relaxation calorimetry	385.2 J/K/kg
204.39 K, relaxation calorimetry	394.64 J/K/kg
204.41 K, relaxation calorimetry	396.21 J/K/kg
204.53 K, relaxation calorimetry	392.18 J/K/kg
211.42 K, relaxation calorimetry	400.83 J/K/kg
211.46 K, relaxation calorimetry	401.71 J/K/kg
211.56 K, relaxation calorimetry	397.19 J/K/kg
218.3 K, relaxation calorimetry	405.64 J/K/kg
218.34 K, relaxation calorimetry	407.41 J/K/kg
218.45 K, relaxation calorimetry	402.99 J/K/kg
225.38 K, relaxation calorimetry	410.35 J/K/kg and 412.32 J/K/kg
225.51 K, relaxation calorimetry	408.68 J/K/kg
232.24 K, relaxation calorimetry	414.68 J/K/kg and 416.64 J/K/kg
232.38 K, relaxation calorimetry	412.81 J/K/kg
239.31 K, relaxation calorimetry	418.61 J/K/kg and 420.57 J/K/kg
239.44 K, relaxation calorimetry	416.94 J/K/kg
246.17 K, relaxation calorimetry	422.44 J/K/kg
246.31 K, relaxation calorimetry	420.96 J/K/kg
253.25 K, relaxation calorimetry	426.56 J/K/kg
253.26 K, relaxation calorimetry	424.99 J/K/kg
253.37 K, relaxation calorimetry	424.7 J/K/kg
260.11 K, relaxation calorimetry	428.53 J/K/kg and 430.1 J/K/kg
260.22 K, relaxation calorimetry	427.94 J/K/kg
260.51 K, Extra sensitive DSC	429.81 J/K/kg
263.12 K, Extra sensitive DSC	432.26 J/K/kg
265.73 K, Extra sensitive DSC	432.66 J/K/kg
267.18 K, relaxation calorimetry	432.16 J/K/kg and 433.25 J/K/kg
267.28 K, relaxation calorimetry	431.28 J/K/kg
268.33 K, Extra sensitive DSC	434.33 J/K/kg
270.07 K, Extra sensitive DSC	435.41 J/K/kg
273.54 K, Extra sensitive DSC	436.78 J/K/kg
274.03 K, relaxation calorimetry	435.6 J/K/kg and 437.27 J/K/kg
274.12 K, relaxation calorimetry	434.33 J/K/kg
276.15 K, Extra sensitive DSC	437.37 J/K/kg
279.62 K, Extra sensitive DSC	439.04 J/K/kg
281.12 K, relaxation calorimetry	440.32 J/K/kg
281.13 K, relaxation calorimetry	440.12 J/K/kg
281.19 K, relaxation calorimetry	438.35 J/K/kg
283.09 K, Extra sensitive DSC	440.42 J/K/kg
285.7 K, Extra sensitive DSC	441.4 J/K/kg
287.94 K, relaxation calorimetry	442.87 J/K/kg
287.95 K, relaxation calorimetry	442.09 J/K/kg
288.02 K, relaxation calorimetry	441.2 J/K/kg
289.17 K, Extra sensitive DSC	442.77 J/K/kg
292.64 K, Extra sensitive DSC	444.15 J/K/kg
295 K, relaxation calorimetry	443.07 J/K/kg and 444.35 J/K/kg
295.08 K, relaxation calorimetry	443.46 J/K/kg
295.25 K, Extra sensitive DSC	444.64 J/K/kg
297.85 K, Extra sensitive DSC	445.72 J/K/kg
300.45 K, Extra sensitive DSC	446.61 J/K/kg
301.99 K, relaxation calorimetry	450.73 J/K/kg
302 K, relaxation calorimetry	450.83 J/K/kg
302.09 K, relaxation calorimetry	445.23 J/K/kg
303.06 K, Extra sensitive DSC	447.88 J/K/kg
305.66 K, Extra sensitive DSC	448.77 J/K/kg
308.26 K, Extra sensitive DSC	449.75 J/K/kg
310.87 K, Extra sensitive DSC	450.44 J/K/kg
313.47 K, Extra sensitive DSC	451.52 J/K/kg
315.21 K, Extra sensitive DSC	452.11 J/K/kg
317.81 K, Extra sensitive DSC	452.3 J/K/kg
320.41 K, Extra sensitive DSC	453.09 J/K/kg
323.02 K, Extra sensitive DSC	453.29 J/K/kg
325.62 K, Extra sensitive DSC	454.17 J/K/kg
328.23 K, Extra sensitive DSC	455.45 J/K/kg
329.96 K, Extra sensitive DSC	455.35 J/K/kg
332.56 K, Extra sensitive DSC	455.84 J/K/kg
335.17 K, Extra sensitive DSC	456.53 J/K/kg
337.77 K, Extra sensitive DSC	457.22 J/K/kg
340.38 K, Extra sensitive DSC	458.2 J/K/kg
342.98 K, Extra sensitive DSC	459.18 J/K/kg
345.58 K, Extra sensitive DSC	459.28 J/K/kg
348.19 K, Extra sensitive DSC	460.46 J/K/kg
350.79 K, Extra sensitive DSC	461.15 J/K/kg
353.39 K, Extra sensitive DSC	460.75 J/K/kg
356 K, Extra sensitive DSC	461.93 J/K/kg
358.6 K, Extra sensitive DSC	462.72 J/K/kg
